Results published in ChEMBL document CHEMBL1909046, “DrugMatrix in vitro pharmacology data”.

What was measured:
[1] = molecular target: T1, Alpha-1A adrenergic receptor (Rattus norvegicus, UniProt P43140); experiment: DRUGMATRIX: Alpha-1A adrenergic receptor radioligand binding (ligand: prazosin); format: cell membranes, Wistar, Submaxillary gland, Membrane; conditions: Not Active = under 50% inhibition at 10 µM
T1 sequence (P43140 whole entry): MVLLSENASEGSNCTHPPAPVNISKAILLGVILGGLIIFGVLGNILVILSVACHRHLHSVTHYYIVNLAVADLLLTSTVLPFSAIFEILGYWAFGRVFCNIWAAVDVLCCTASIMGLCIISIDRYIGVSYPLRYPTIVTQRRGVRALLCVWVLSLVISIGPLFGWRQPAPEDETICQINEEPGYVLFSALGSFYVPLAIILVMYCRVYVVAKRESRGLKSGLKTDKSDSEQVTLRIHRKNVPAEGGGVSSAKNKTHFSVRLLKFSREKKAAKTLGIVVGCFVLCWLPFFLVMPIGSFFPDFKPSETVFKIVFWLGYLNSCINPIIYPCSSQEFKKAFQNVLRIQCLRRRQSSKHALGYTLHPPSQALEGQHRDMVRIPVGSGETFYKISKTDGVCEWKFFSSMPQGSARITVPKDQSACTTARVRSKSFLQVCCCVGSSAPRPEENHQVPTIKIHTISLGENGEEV

[2] = molecular target: T2, Alpha-1D adrenergic receptor (Homo sapiens, UniProt P25100); format: cell membranes, HEK293, Membrane; conditions: hek293; further: in other assays of this panel Not Active means under 50% inhibition at 10 µM
T2 sequence (P25100 whole entry): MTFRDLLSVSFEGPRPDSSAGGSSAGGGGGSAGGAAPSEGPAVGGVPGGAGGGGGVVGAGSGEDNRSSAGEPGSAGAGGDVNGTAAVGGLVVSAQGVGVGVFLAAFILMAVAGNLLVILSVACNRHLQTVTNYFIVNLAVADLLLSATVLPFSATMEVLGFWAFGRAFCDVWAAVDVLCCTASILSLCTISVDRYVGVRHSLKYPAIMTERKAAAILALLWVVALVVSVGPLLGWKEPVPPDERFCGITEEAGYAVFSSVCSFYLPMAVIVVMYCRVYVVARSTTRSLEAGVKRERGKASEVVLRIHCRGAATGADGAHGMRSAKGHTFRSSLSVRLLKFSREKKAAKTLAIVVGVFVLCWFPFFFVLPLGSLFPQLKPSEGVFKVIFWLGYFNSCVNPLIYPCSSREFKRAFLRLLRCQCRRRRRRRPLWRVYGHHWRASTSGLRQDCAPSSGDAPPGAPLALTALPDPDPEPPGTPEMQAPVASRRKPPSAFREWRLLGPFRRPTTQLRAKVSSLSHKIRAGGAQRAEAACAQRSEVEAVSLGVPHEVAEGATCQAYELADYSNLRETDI

[3] = molecular target: T3, C-X-C chemokine receptor type 1 (Homo sapiens, UniProt P25024); further: in other assays of this panel Not Active means under 50% inhibition at 10 µM
T3 sequence (P25024 whole entry): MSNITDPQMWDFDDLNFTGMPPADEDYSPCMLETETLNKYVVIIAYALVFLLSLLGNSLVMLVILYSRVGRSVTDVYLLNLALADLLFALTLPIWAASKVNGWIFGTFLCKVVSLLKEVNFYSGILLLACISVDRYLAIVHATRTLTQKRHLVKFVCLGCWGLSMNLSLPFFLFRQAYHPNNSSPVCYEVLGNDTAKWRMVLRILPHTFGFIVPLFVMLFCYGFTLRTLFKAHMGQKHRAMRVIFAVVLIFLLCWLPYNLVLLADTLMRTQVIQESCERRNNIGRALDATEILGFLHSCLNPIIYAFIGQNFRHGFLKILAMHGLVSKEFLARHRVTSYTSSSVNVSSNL

[4] = DRUGMATRIX: Platelet-Derived Growth Factor (PDGF) radioligand binding (ligand: [125I] PDGF); format: cell-based; conditions: nih3t3; Not Active = under 50% inhibition at 10 µM
Progesterone receptor = molecular target: T4, Progesterone receptor (Bos taurus, UniProt Q690N0); experiment: DRUGMATRIX: Progesterone radioligand binding (ligand: [3H] R-5020); format: tissue-based, Uterus; conditions: Not Active = under 50% inhibition at 10 µM
T4 sequence (Q690N0 whole entry): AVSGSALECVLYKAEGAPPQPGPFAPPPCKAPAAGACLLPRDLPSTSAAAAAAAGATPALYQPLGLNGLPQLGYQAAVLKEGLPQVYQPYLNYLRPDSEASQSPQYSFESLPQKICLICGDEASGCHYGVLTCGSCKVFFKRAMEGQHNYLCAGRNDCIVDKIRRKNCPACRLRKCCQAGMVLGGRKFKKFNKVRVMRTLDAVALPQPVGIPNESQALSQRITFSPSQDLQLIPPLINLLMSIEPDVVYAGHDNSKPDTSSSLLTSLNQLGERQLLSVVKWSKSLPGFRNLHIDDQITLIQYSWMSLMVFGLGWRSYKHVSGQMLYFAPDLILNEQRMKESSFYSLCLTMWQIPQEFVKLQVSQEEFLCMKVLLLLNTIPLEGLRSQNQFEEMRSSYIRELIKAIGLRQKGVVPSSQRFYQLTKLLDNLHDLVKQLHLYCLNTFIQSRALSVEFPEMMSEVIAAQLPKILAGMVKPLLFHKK

[5] = molecular target: Protein kinase C alpha type (Homo sapiens, UniProt P17252); format: cell-based; conditions: sf9;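 further: inhibition of PKCalpha kinase activity measured in an enzyme assay with histone as the phosphorylation substrate; in other assays of this panel Not Active means under 50% inhibition at 10 µM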
Cytochrome P450 3A4 = Cytochrome P450 3A4 (Homo sapiens, UniProt P08684); conditions: bti-tn-5b1-4; further: in other assays of this panel Not Active means under 50% inhibition at 10 µM
Chain of Cytochrome P450 3A4 (P08684 whole entry): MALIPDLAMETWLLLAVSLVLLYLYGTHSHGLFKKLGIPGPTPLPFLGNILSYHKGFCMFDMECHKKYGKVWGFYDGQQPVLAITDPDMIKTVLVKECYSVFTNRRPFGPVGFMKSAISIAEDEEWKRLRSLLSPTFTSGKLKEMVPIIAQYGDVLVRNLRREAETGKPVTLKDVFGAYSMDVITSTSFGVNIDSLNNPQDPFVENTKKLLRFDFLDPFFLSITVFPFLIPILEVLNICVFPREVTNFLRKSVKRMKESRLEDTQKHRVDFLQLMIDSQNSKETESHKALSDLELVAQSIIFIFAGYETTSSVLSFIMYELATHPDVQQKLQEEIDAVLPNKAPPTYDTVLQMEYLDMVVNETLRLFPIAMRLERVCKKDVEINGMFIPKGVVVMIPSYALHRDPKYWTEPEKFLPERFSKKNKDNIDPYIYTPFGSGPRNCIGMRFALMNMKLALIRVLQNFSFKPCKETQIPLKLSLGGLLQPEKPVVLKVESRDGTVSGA

NC(=O)N1c2ccccc2C=Cc2ccccc21 [CARBAMAZEPINE]
Not Active: IC50 [1] | IC50 [2] | IC50 [3] | IC50 [4] | Ki [4] | IC50 (Progesterone receptor) | IC50 [5] | IC50 (Cytochrome P450 3A4) | Ki (Cytochrome P450 3A4)

CCOC(=O)n1ccn(C)c1=S [CARBIMAZOLE]
Not Active: IC50 [1] | IC50 [2] | IC50 [3] | IC50 [4] | Ki [4] | IC50 (Progesterone receptor) | IC50 [5] | IC50 (Cytochrome P450 3A4) | Ki (Cytochrome P450 3A4)

Oc1ccccc1O [CATECHOL]
Not Active: IC50 [1] | IC50 [2] | IC50 [3] | IC50 [4] | Ki [4] | IC50 (Progesterone receptor) | IC50 [5] | IC50 (Cytochrome P450 3A4) | Ki (Cytochrome P450 3A4)

CO[C@@]1(NC(=O)CSCC#N)C(=O)N2C(C(=O)O)=C(CSc3nnnn3C)CS[C@@H]21 [CEFMETAZOLE]
Not Active: IC50 [1] | IC50 [2] | IC50 [3] | IC50 [4] | Ki [4] | IC50 (Progesterone receptor) | IC50 [5] | IC50 (Cytochrome P450 3A4) | Ki (Cytochrome P450 3A4)

CN(C(=O)CCCOc1ccc2[nH]c(=O)ccc2c1)C1CCCCC1 [CILOSTAMIDE]
Not Active: IC50 [1] | IC50 [2] | IC50 [3] | IC50 [4] | Ki [4] | IC50 (Progesterone receptor) | IC50 [5] | IC50 (Cytochrome P450 3A4) | Ki (Cytochrome P450 3A4)

CC(C)(Oc1ccc(C2CC2(Cl)Cl)cc1)C(=O)O (stereo unspecified) [CIPROFIBRATE]
Not Active: IC50 [1] | IC50 [2] | IC50 [3] | IC50 [4] | Ki [4] | IC50 (Progesterone receptor) | IC50 [5] | IC50 (Cytochrome P450 3A4) | Ki (Cytochrome P450 3A4)

Nc1nc(Cl)nc2c1ncn2[C@H]1C[C@H](O)[C@@H](CO)O1 [CLADRIBINE]
Not Active: IC50 [1] | IC50 [2] | IC50 [3] | IC50 [4] | Ki [4] | IC50 (Progesterone receptor) | IC50 [5] | IC50 (Cytochrome P450 3A4) | Ki (Cytochrome P450 3A4)

CC[C@H]1OC(=O)[C@H](C)[C@@H](O[C@H]2C[C@@](C)(OC)[C@@H](O)[C@H](C)O2)[C@H](C)[C@@H](O[C@@H]2O[C@H](C)C[C@H](N(C)C)[C@H]2O)[C@](C)(OC)C[C@@H](C)C(=O)[C@H](C)[C@@H](O)[C@]1(C)O [CLARITHROMYCIN]
Not Active: IC50 [1] | IC50 [2] | IC50 [3] | IC50 [4] | Ki [4] | IC50 (Progesterone receptor) | IC50 [5] | IC50 (Cytochrome P450 3A4) | Ki (Cytochrome P450 3A4)

O=C(O)c1cc(=O)c2c(OCC(O)COc3cccc4oc(C(=O)O)cc(=O)c34)cccc2o1 [CROMOLYN]
Not Active: IC50 [1] | IC50 [2] | IC50 [3] | IC50 [4] | Ki [4] | IC50 (Progesterone receptor) | IC50 [5] | IC50 (Cytochrome P450 3A4) | Ki (Cytochrome P450 3A4)
